The results in this text go back to patent US8338473B2, “Derivatives of psammaplin A, a method for their synthesis and their uses for the prevention or treatment of cancer” (Centre National de la Recherche Scientifique, priority 2007, dated 2012).

As usually defined, the IC50 is the concentration that inhibits the measured activity by half.

One data set deals with p21WAF1/CIP1. As to the kind of experiment: p21 expression, Western blot in U937 cells. The class given is cell-based, human. Particulars: U937, 6 and 16 hrs. On the procedure:
(§1) FIG. 1: a) Cell cycle analysis of U937 cells treated for 30 hrs with the indicated compounds used at 1 and 5 μM; b) Caspase 3 apoptotic assay of the indicated compounds after 24 hrs of treatment in the U937 cells; c) Tubulin acetylation and p21 expression levels at 6 and 16 hrs after treatment with the indicated compounds; total tubulin expression levels are used for equal loading; d) Histone H3 acetylation and K9 H3 methylation expression levels at 6 and 16 hrs after treatment with the indicated compounds; total tubulin expression levels are used for equal loading; e) K9, K14, K18 histone H3 acetylation expression levels at 6 and 16 hrs after treatment with the indicated compounds; total ERKs expression levels are used for equal loading; f) HDAC1 enzymatic assay: IP-HDAC1 is incubated with the indicated inhibitors for 24 Hrs; activity is measured as ^3H-acetyl release; g) HDAC4 enzymatic assay: IP-HDAC4 is incubated with the indicated inhibitors for 24 hrs; activity is measured as ^3H-acetyl release.
FIG. 3: a) Cell cycle and apoptosis analysis carried out in U937 cells after 24 hrs with the indicated compounds; values are media of independent triplicates; b) CD11c expression analysis carried out in U937 cells with the indicated compounds; values are media of independent duplicates; c) Tubuline acetylation and p21 expression levels in U937 cells after 24 hrs with the indicated treatments; total ERKs expression levels are used for equal loading; d) acetylation of histone H3 under the conditions indicated in (c).
For the determination of p21^WAF1/CIP1 and p16^INK4 100 μg of total protein extracts were separated on a 15% polyacrylammide gels and blotted. Western blots were shown for p21 (Transduction Laboratories, dilution 1:500), p16 (Santa Cruz) and total ERKs (Santa Cruz) were used to normalise for equal loading. For alpha-tubulin acetylation 25 μg of total protein extracts were separated on a 10% polyacrylamide gels and blotted. […]
In general terms: A western blot detects proteins with antibodies after separation by electrophoresis.

In data set [1] the test system is prostate cancer cells (LnCap). Description: Anti-proliferative and apoptogenic action in prostate cancer cells. The format is cell-based. The following applies: data not shown.
For a further data set, the target named is HDAC1 (Homo sapiens, UniProt Q13547). As to the kind of experiment: HDAC1 enzymatic assay (IP-HDAC1, 3H-acetyl release). The format is biochemical. Particulars: IP-HDAC1 incubated with inhibitor 24 hrs. On the procedure: as §1
A further data set concerns p16INK4a promoter. As to the kind of experiment: Methylation specific PCR for the p16 gene. The format is cell-based. Particulars: 24 hrs. On the procedure:
(§2) FIG. 2: a) Methylation specific PCR for the RARβ gene after 16 and 24 hrs of treatment with the indicated compounds; b) Methylation specific PCR for the p16 gene after 24 hrs of the indicated treatments. Samples are representative of real duplicates; c) p16 expression levels in U937 cells after 24 hrs with the indicated treatments; d) DNMT enzymatic in vitro assay carried out with 1.5 and 50 μM of the indicated compounds;
DNA extraction was performed as described below. Bisulfite treatment and PCR for the determination of p16 methylation was performed as described from the suppliers (Chemicon).

Another data set has as its system p16INK4a. Description: p16 expression levels in U937 cells. The class given is cell-based, human. Particulars: U937, 24 hrs. On the procedure:
as §2
For the determination of p21^WAF1/CIP1 and p16^INK4 100 μg of total protein extracts were separated on a 15% polyacrylammide gels and blotted. Western blots were shown for p21 (Transduction Laboratories, dilution 1:500), p16 (Santa Cruz) and total ERKs (Santa Cruz) were used to normalise for equal loading. For alpha-tubulin acetylation 25 μg of total protein extracts were separated on a 10% polyacrylamide gels and blotted. Western blots were shown for acetylated alpha-tubulin (Sigma, dilution 1:500) and total ERKs (Santa Cruz) or total tubulin (Sigma) were used to normalise for equal loading.

Another data set deals with histone H3, H3K56. Description: Post-translational modifications on histone proteins (mass spectrometry, SILAC). Particulars: U937 (and other) cells, 24 h, 5 μM. The class given is cell-based, human. As to the method:
U937 cells were grown in RPMI medium in the presence of lysine and arginine (‘light’) or istope versions, Arg10 and Lys8 (‘heavy’). […]. As controls, cell grown in heavy medium were treated for 24 h with DMSO. Light and heavy cells were 7.5×10^6 cells harvest and mixed in 1:1 ratio (total 15×10^6 cells). The cells were washed twice with PBS and the cell pellet was stored at −80° C.
Cells were resuspended in 750 μl Triton Extraction Buffer (TEB: PBS containing 0.5% Triton X 100 (v/v), 2 mM phenylmethylsulfonyl fluoride (PMSF) and 0.02% (w/v) NaN3) and lysed on ice for 10 min with gentle stirring. The lysate was centrifuged for 10 min at 6000 rpm and the supernatant discarded. The pellet was washed with 375 μl of TEB and peletted by centrifugation as before. Pellet is resuspended in 20 μl 250 mM HCl and acid extraction of the histones was performed o/n at 4° C.
Extracted histones were cleared by centrifugation and separated on a 15% acrylamide gel and the gel was stained with Coomassie. The gel region containing the histones was sliced, reduced and alkylated in gel. Proteins were digested o/n with trypsin (Promega). Peptides were eluted from the gel with trifluoroacetic acid. […]
U937 cells were treated with UVI5008 for 24 hrs and histones were acid extracted. Proteins were digested with trypsin and the peptides were analysed using a nanoLC that is online with a FT-ICR mass spectrometer. […]

For data set [2], the system named is HCT-116 colon carcinoma cells xenografted in immunoincompetent mice. The following applies: for Normalised tumour weight: mean of n = 10.
The test system of the next data set is DU-145 cells. As to the kind of experiment: MTT cytotoxicity assay, DU-145. The following applies: read-out: IC50 values, MTT cytotoxicity assay; DU-145, 48 h.

Read-outs that look alike come from different tables or passages of the source.

Sequence of HDAC1 (Q13547 whole entry, species assumed): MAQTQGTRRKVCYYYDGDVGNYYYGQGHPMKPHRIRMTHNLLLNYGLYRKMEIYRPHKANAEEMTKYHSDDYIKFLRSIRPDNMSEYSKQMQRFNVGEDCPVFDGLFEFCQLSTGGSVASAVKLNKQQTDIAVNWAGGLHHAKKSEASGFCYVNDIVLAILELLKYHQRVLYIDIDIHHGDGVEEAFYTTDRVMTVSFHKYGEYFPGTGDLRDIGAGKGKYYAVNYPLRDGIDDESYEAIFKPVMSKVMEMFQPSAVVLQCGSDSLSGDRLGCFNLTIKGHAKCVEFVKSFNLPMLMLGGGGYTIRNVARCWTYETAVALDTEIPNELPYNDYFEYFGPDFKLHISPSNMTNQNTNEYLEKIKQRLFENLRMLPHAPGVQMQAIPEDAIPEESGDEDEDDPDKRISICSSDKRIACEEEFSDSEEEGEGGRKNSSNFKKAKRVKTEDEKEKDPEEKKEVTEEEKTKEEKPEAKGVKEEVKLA

For the compound `O=C(NCCSSCCNC(=O)C(Cc1c[nH]c2ccc(Br)cc12)=NO)C(Cc1c[nH]c2ccc(Br)cc12)=NO` [UVI5008], the “expression of p21WAF1/CIP1” value with p21WAF1/CIP1 is listed as “dramatically increased”. In addition, the “anti-proliferative and apoptogenic action” value in data set [1] is given as “confirmed”. Further, on HDAC1, the HDAC1 inhibition entry was “blocks HDAC1 activity nearly quantitatively”. Besides, the “unmethylated p16INK4a promoter DNA (MSP)” value in the data set with p16INK4a promoter is given as “increased”. In the data set with p16INK4a, the p16INK4a gene expression result is “de-silenced”. Moreover, the “post-translational modifications on histone proteins” value with histone H3, H3K56 is on record as “identification of a novel acetylated lysine residue in histone H3, H3K56”. In data set [2] (40 mg/kg i.p. every second day), the “Percent Growth Inhibition after 22 days” value is 56 ± 7%. Moreover, the “animals with signs of toxicity (accumulation of intra peritoneal fluid)” value in data set [2] (40 mg/kg i.p. every second day) is reported as 3 animals out of 10. Also, the Normalised tumour weight in data set [2] (day 1, 40 mg/kg i.p. every second day) came out at 100 ± 21.5 mg; in data set [2] (day 4, 40 mg/kg i.p. every second day) it was 180.55 ± 43 mg; in data set [2] (day 12, 40 mg/kg i.p. every second day), 548.73 ± 109.8 mg; in data set [2] (day 17, 40 mg/kg i.p. every second day), 915.28 ± 196.8 mg; in data set [2] (day 22, 40 mg/kg i.p. every second day) it was 1684.79 ± 262.1 mg. Moreover, in data set [2] (each compound at its MTD), the “anti tumoral activity compared with the reference compounds” value was “greater anti tumoral activity with respect to SAHA and MS-275”. Further, the IC50 in the data set on DU-145 cells was determined as 2400 ± 300 nM.
